# Read-outs that look alike come from different tables or passages of the source.
# Assay type: in vivo, CD1 (ICR) mice
# Conditions: for Plasma Compound Concentration: Activated form 1 in plasma, 232.5 mg/kg (p.o.)
# Description: It was then centrifuged to obtain plasma.
compound,measurement,setting,value
COC(=O)[C@@H](N)CCNC(=O)Oc1c2ccccc2c(OC(=O)NCC[C@H](N)C(=O)OC)c2oc(C(C)=O)cc12.Cl.Cl [Example 11],Plasma Compound Concentration,"0.25 hr, animal 1",18.86 µM
same,Plasma Compound Concentration,"0.25 hr, animal 2",19.65 µM
same,Plasma Compound Concentration,"0.25 hr, animal 3",25.31 µM
same,Plasma Compound Concentration,"0.25 hr, mean",21.27 µM
same,Plasma Compound Concentration,"0.5 hr, animal 1",17.48 µM
same,Plasma Compound Concentration,"0.5 hr, animal 2",11.45 µM
same,Plasma Compound Concentration,"0.5 hr, animal 3",17.11 µM
same,Plasma Compound Concentration,"0.5 hr, mean",15.35 µM
same,Plasma Compound Concentration,"1.0 hr, animal 1",10.87 µM
same,Plasma Compound Concentration,"1.0 hr, animal 2",18.98 µM
same,Plasma Compound Concentration,"1.0 hr, animal 3",15.93 µM
same,Plasma Compound Concentration,"1.0 hr, mean",15.26 µM
same,Plasma Compound Concentration,"2.0 hr, animal 1",13.53 µM
same,Plasma Compound Concentration,"2.0 hr, animal 2",6.62 µM
same,Plasma Compound Concentration,"2.0 hr, animal 3",13.57 µM
same,Plasma Compound Concentration,"2.0 hr, mean",11.24 µM
same,Plasma Compound Concentration,"4.0 hr, animal 1",6.12 µM
same,Plasma Compound Concentration,"4.0 hr, animal 2",3.73 µM
same,Plasma Compound Concentration,"4.0 hr, animal 3",11.49 µM
same,Plasma Compound Concentration,"4.0 hr, mean",7.11 µM
same,Plasma Compound Concentration,"6.0 hr, animal 1",2.37 µM
same,Plasma Compound Concentration,"6.0 hr, animal 2",0.60 µM
same,Plasma Compound Concentration,"6.0 hr, animal 3",0.75 µM
same,Plasma Compound Concentration,"6.0 hr, mean",1.24 µM
same,Plasma Compound Concentration,"24.0 hr, animal 3",0.04 µM
same,Plasma Compound Concentration,"24.0 hr, mean",0.01 µM
same,"concentration of 2-acetylnaphtho[2,3-b]furan-4,9-dione (Activated form 1) observed (in words)",orally administered to mice,high concentration
